According to PubChem BioAssay (NCI):
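Interpolation was linear, between the two tested concentrations surrounding the appropriate level; five concentrations were tested over 48 hours in 96-well plates. GI50: concentration for 50% inhibition of growth. At the TGI there is no net growth.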

Legend:
Assay in all cases: DTP human tumour cell line panel, 48 h
786-0 renal = tested on: 786-0 renal
A549 NSCLC = tested on: A549 NSCLC
ACHN renal = tested on: ACHN renal
BT-549 breast = tested on: BT-549 breast
CAKI-1 renal = tested on: CAKI-1 renal
CCRF-CEM leukemia = tested on: CCRF-CEM leukemia
COLO 205 colon = tested on: COLO 205 colon
DU-145 prostate = tested on: DU-145 prostate
EKVX NSCLC = tested on: EKVX NSCLC
HCC-2998 colon = tested on: HCC-2998 colon
HCT-116 colon = tested on: HCT-116 colon
HCT-15 colon = tested on: HCT-15 colon
HL-60(TB) leukemia = tested on: HL-60(TB) leukemia
HOP-62 NSCLC = tested on: HOP-62 NSCLC
HOP-92 NSCLC = tested on: HOP-92 NSCLC
HS 578T breast = tested on: HS 578T breast
HT29 colon = tested on: HT29 colon
IGROV1 ovarian = tested on: IGROV1 ovarian
KM12 colon = tested on: KM12 colon
LOX IMVI melanoma = tested on: LOX IMVI melanoma
M14 melanoma = tested on: M14 melanoma
MALME-3M melanoma = tested on: MALME-3M melanoma
MCF7 breast = tested on: MCF7 breast
MDA-MB-231 breast = tested on: MDA-MB-231 breast
MDA-MB-435 = tested on: MDA-MB-435
MOLT-4 leukemia = tested on: MOLT-4 leukemia
NCI-H226 lung = tested on: NCI-H226 lung
NCI-H23 lung = tested on: NCI-H23 lung
NCI-H460 lung = tested on: NCI-H460 lung
NCI-H522 lung = tested on: NCI-H522 lung
NCI/ADR-RES ovarian = tested on: NCI/ADR-RES ovarian
OVCAR-3 ovarian = tested on: OVCAR-3 ovarian
OVCAR-4 ovarian = tested on: OVCAR-4 ovarian
OVCAR-5 ovarian = tested on: OVCAR-5 ovarian
OVCAR-8 ovarian = tested on: OVCAR-8 ovarian
PC-3 prostate = tested on: PC-3 prostate
RPMI-8226 leukemia = tested on: RPMI-8226 leukemia
RXF 393 renal = tested on: RXF 393 renal
SF-268 CNS = tested on: SF-268 CNS
SF-295 CNS = tested on: SF-295 CNS
SF-539 CNS = tested on: SF-539 CNS
SK-MEL-2 melanoma = tested on: SK-MEL-2 melanoma
SK-MEL-28 melanoma = tested on: SK-MEL-28 melanoma
SK-MEL-5 melanoma = tested on: SK-MEL-5 melanoma
SK-OV-3 ovarian = tested on: SK-OV-3 ovarian
SN12C renal = tested on: SN12C renal
SNB-19 CNS = tested on: SNB-19 CNS
SNB-75 CNS = tested on: SNB-75 CNS
SR leukemia = tested on: SR leukemia
SW-620 colon = tested on: SW-620 colon
T-47D breast = tested on: T-47D breast
TK-10 renal = tested on: TK-10 renal
U251 CNS = tested on: U251 CNS
UACC-257 melanoma = tested on: UACC-257 melanoma
UACC-62 melanoma = tested on: UACC-62 melanoma
UO-31 renal = tested on: UO-31 renal

CCCCCCC/C(=N\N=C(N)N)c1ccc(O)cc1
GI50 (786-0 renal): 2.16 µM
TGI (786-0 renal): 5.31 µM
GI50 (A549 NSCLC): 2.88 µM
TGI (A549 NSCLC): 17.2 µM
GI50 (ACHN renal): 2.25 µM
TGI (ACHN renal): 5.13 µM
GI50 (BT-549 breast): 2.41 µM
TGI (BT-549 breast): 8.65 µM
GI50 (CAKI-1 renal): 2.8 µM
TGI (CAKI-1 renal): 11.8 µM
GI50 (CCRF-CEM leukemia): 1.96 µM
TGI (CCRF-CEM leukemia): 5.77 µM
GI50 (COLO 205 colon): 1.74 µM
TGI (COLO 205 colon): 3.16 µM
GI50 (DU-145 prostate): 3.15 µM
TGI (DU-145 prostate): 11 µM
GI50 (EKVX NSCLC): 2.71 µM
TGI (EKVX NSCLC): 14 µM
GI50 (HCC-2998 colon): 1.62 µM
TGI (HCC-2998 colon): 3 µM
GI50 (HCT-116 colon): 1.67 µM
TGI (HCT-116 colon): 3.41 µM
GI50 (HCT-15 colon): 3.48 µM
TGI (HCT-15 colon): 12.9 µM
GI50 (HL-60(TB) leukemia): 1.75 µM
TGI (HL-60(TB) leukemia): 3.65 µM
GI50 (HOP-62 NSCLC): 1.81 µM
TGI (HOP-62 NSCLC): 3.81 µM
GI50 (HOP-92 NSCLC): 0.692 µM
TGI (HOP-92 NSCLC): 3.19 µM
GI50 (HS 578T breast): 3.14 µM
TGI (HS 578T breast): 24.7 µM
GI50 (HT29 colon): 2.35 µM
TGI (HT29 colon): 6.25 µM
GI50 (IGROV1 ovarian): 2.28 µM
TGI (IGROV1 ovarian): 10.7 µM
GI50 (KM12 colon): 1.73 µM
TGI (KM12 colon): 3.52 µM
GI50 (LOX IMVI melanoma): 1.62 µM
TGI (LOX IMVI melanoma): 2.97 µM
GI50 (M14 melanoma): 1.71 µM
TGI (M14 melanoma): 3.18 µM
GI50 (MALME-3M melanoma): 1.77 µM
TGI (MALME-3M melanoma): 3.52 µM
GI50 (MCF7 breast): 1.71 µM
TGI (MCF7 breast): 4.43 µM
GI50 (MDA-MB-231 breast): 1.67 µM
TGI (MDA-MB-231 breast): 3.54 µM
GI50 (MDA-MB-435): 1.71 µM
TGI (MDA-MB-435): 3.44 µM
GI50 (MOLT-4 leukemia): 1.67 µM
TGI (MOLT-4 leukemia): 4.76 µM
GI50 (NCI-H226 lung): 2.2 µM
TGI (NCI-H226 lung): 6.63 µM
GI50 (NCI-H23 lung): 2.6 µM
TGI (NCI-H23 lung): 10.9 µM
GI50 (NCI-H460 lung): 1.82 µM
TGI (NCI-H460 lung): 3.68 µM
GI50 (NCI-H522 lung): 1.62 µM
TGI (NCI-H522 lung): 3.48 µM
GI50 (NCI/ADR-RES ovarian): 10 µM
TGI (NCI/ADR-RES ovarian): 23.2 µM
GI50 (OVCAR-3 ovarian): 2.23 µM
TGI (OVCAR-3 ovarian): 7.84 µM
GI50 (OVCAR-4 ovarian): 1.65 µM
TGI (OVCAR-4 ovarian): 12.3 µM
GI50 (OVCAR-5 ovarian): 3.83 µM
TGI (OVCAR-5 ovarian): 15.3 µM
GI50 (OVCAR-8 ovarian): 2.12 µM
TGI (OVCAR-8 ovarian): 5.26 µM
GI50 (PC-3 prostate): 2.17 µM
TGI (PC-3 prostate): 8.92 µM
GI50 (RPMI-8226 leukemia): 1.71 µM
TGI (RPMI-8226 leukemia): 4.3 µM
GI50 (RXF 393 renal): 1.94 µM
TGI (RXF 393 renal): 5.16 µM
GI50 (SF-268 CNS): 1.77 µM
TGI (SF-268 CNS): 5.31 µM
GI50 (SF-295 CNS): 1.77 µM
TGI (SF-295 CNS): 4.46 µM
GI50 (SF-539 CNS): 1.91 µM
TGI (SF-539 CNS): 4.4 µM
GI50 (SK-MEL-2 melanoma): 1.96 µM
TGI (SK-MEL-2 melanoma): 3.85 µM
GI50 (SK-MEL-28 melanoma): 1.73 µM
TGI (SK-MEL-28 melanoma): 3.28 µM
GI50 (SK-MEL-5 melanoma): 1.5 µM
TGI (SK-MEL-5 melanoma): 2.82 µM
GI50 (SK-OV-3 ovarian): 3.04 µM
TGI (SK-OV-3 ovarian): 11.2 µM
GI50 (SN12C renal): 2.76 µM
TGI (SN12C renal): 11.8 µM
GI50 (SNB-19 CNS): 2.13 µM
TGI (SNB-19 CNS): 10.6 µM
GI50 (SNB-75 CNS): 1.58 µM
TGI (SNB-75 CNS): 5.41 µM
GI50 (SR leukemia): 1.67 µM
TGI (SR leukemia): 3.96 µM
GI50 (SW-620 colon): 1.65 µM
TGI (SW-620 colon): 3.35 µM
GI50 (T-47D breast): 1.87 µM
TGI (T-47D breast): 4.89 µM
GI50 (TK-10 renal): 5.53 µM
TGI (TK-10 renal): 18 µM
GI50 (U251 CNS): 1.54 µM
TGI (U251 CNS): 2.87 µM
GI50 (UACC-257 melanoma): 1.76 µM
TGI (UACC-257 melanoma): 3.81 µM
GI50 (UACC-62 melanoma): 1.55 µM
TGI (UACC-62 melanoma): 3.26 µM
GI50 (UO-31 renal): 2.38 µM
TGI (UO-31 renal): 12.1 µM
